The source of these data is patent publication US20200329698A1, “COMPOSITIONS FOR ORGAN GRAFT PRESERVATION AND METHODS OF USE” (Nobilis Therapeutics, Inc., priority 2019, published 2020).

The subject of experiment [1] is ex vivo renal grafts from brain death or cardiac arrest donors. Briefly: Rat hypothermic machine perfusion model. The note with it: exposure of ex vivo grafts prior to engraftment.
For experiment [2], the system named is rat renal grafts from DBD donation or DCD donation. As for the experimental part: Rat renal transplantation was performed. Rat donor kidneys were transplanted orthotopically into recipients by using standard microvascular techniques. […] After the specified period of cold ischemia, the recipient's left kidney was extracted, and the donor renal vein was connected to the recipient renal vein through end-to-end anastomosis. The arterial anastomosis between the donor aortic patch was connected to the recipient aorta in an end-to-side manner. Urinary reconstruction was performed by ureter-to-bladder anastomosis. The total surgical ischemia time was restricted to <45 min. The contralateral kidney was removed immediately after engraftment.
Tumor necrosis factor-α (TNF-α) in the culture medium were detected by ELISA (Human TNF-α ELISA kits, INVITROGEN®, UK). Rat lung tissue and serum TNF-α were measured by ELISA (Rat TNF-α ELISA kits, INVITROGEN®, UK).
MTS was performed on paraffin-embedded tissue according to the manufacturer's instructions (MTS kit; SIGMA-ALDRICH®, Ltd., Poole, UK). The amount of collagen deposition (percentage of MTS-stained area) was then digitally quantified with ImageJ software (U.S. National Institutes of Health, Bethesda, Md., USA).
Blood samples were collected when the animals were euthanized. After centrifugation, serum urea and creatinine concentrations were measured with an AU2700 analyzer (OLYMPUS).
(§1) A rat renal graft machine perfusion model was developed, (see FIG. 1B) to simulate the renal graft preservation process. A series of experiments were conducted using the Fischer-to-Lewis allogeneic renal transplant model. Grafts from donors after brain death (DBD) or cardiac arrest (DCD) were used. The preserving solution was saturated with dexmedetomidine at 0.1 nM[32]. The grafts were extracted and then machine-perfused with UW solution at 4° C.[18] with a flow rate of 1.5-2 ml/min [39] for 4 hours and then kept in the preserving solution until 24 hours. Grafts were then transplanted into Lewis recipient immediately following extraction (cold-ischemia 0 hr), or stored in preservative solution for 24 hr (cold-ischemia 24 hr), The orthotopic renal transplantation into Lewis recipients was conducted and their contralateral kidneys were removed at the end of surgery. The recipient received cyclosporine A (5 mg/kg/day intramuscular injection per day) for 10 days to prevent acute immune rejection.
With respect to FIGS. 4A-4J, Fischer rat renal grafts from DBD donation or DCD donation were stored in UW preservative solution at 4° C., saturated with DEX for up to 24 hrs (Cold ischemia CI 24 hr), grafts harvested from donor (cold ischemia CI 0 hr) serves as control. (A and B) Serum creatinine and urea concentration were analyzed 24 hours after transplantation (n=6). (C and D) Tissue cytokine TNF-α and IL-1β concentration was assessed by ELISA. (E) TUNEL staining of renal tubules in renal cortices 24 hours after transplantation. Scale bar=50 μm. In DCD grafts, Infiltrated CD68+ macrophages (Red fluoresce; F) and renal fibrosis (blue MTS staining; G) on day 8 after transplantation were assessed. In both DCD and DBD grafts, (H) Analysis of the percentage of TUNEL+ tubular cells in renal cortices. (I) The number of CD68+ macrophage, and (J) the area of MTS staining. Data is expressed as mean±SD (n=6). […] CI: cold ischemia, Vh: Vehicle, Dex: Dexmedetomidine.

Experiment [3] concerns JAK/STAT signaling pathway. The following applies: cited from earlier work.
Experiment [4] concerns rat renal grafts from DBD donation or DCD donation. The following applies: Dex 0.1 nM in UW at 4° C., cold ischemia 24 hr, vs vehicle. As for the experimental part: For in vivo fluorescence or DAB staining, 25-μm frozen lung sections were incubated with rabbit anti-Rip1 (1:200, SANTA CRUZ BIOTECHNOLOGY®), rabbit anti-Rip3 (1:200, SANTA CRUZ BIOTECHNOLOGY®), mouse anti-HMGB-1 (1:200, Abcam), Goat anti-TLR-4 (1:200, SANTA CRUZ BIOTECHNOLOGY®), rabbit anti-Nrf-2 (1:200, SANTA CRUZ BIOTECHNOLOGY®), mouse anti-SOD-1 (1:200, Abcam), mouse anti-NQO-1 (1:200 Abcam), rabbit anti-3-nitrotyrosine (1:200, Abcam) and rabbit anti-4-hydroxynonenal (1:200, Abcam) at 4° C. overnight. After washing with PBST, the slides were incubated with fluorochrome-conjugated secondary antibodies (MILLIPORE™, UK). For double-labelled immunofluorescence, lung samples were incubated with the first primary antibody overnight, followed by the first secondary antibody, and then the second primary antibody and the second secondary antibody. The slides were counterstained with nuclear dye DAPI and mounted with […]® Mounting Medium (Vector lab, USA). Sections were examined using an OLYMPUS™ (Watford, UK) BX4 microscope under constant exposure level. Immunofluorescence was quantified using ImageJ (National Institutes of Health, Maryland, USA) and the background was subtracted. Ten representative regions per section (in vivo) or field (in vitro) were randomly selected by an assessor blinded to the treatment groups. Values were then calculated as percentages of the mean value for naïve controls and expressed as percentage fluorescence intensity.
Lung alveolar cell death was detected by the in situ TUNEL assay (MILLIPORE™) according to the manufacturer's instructions. TUNEL nuclei were visualized by green FITC fluorescence.
as §1

Where [5] appears, read: after transplantation, graft stored with Dex 0.1 nM, CI 24 hr.
The mark [6] stands for this setting: day 16 after surgery, graft stored with Dex 0.1 nM.

As for `Cc1cccc([C@H](C)c2cnc[nH]2)c1C` [Dexmedetomidine], in experiment [1], the “organ graft injury, histologically and functionally” value is recorded as “prevent organ graft injury”. Further, the “cell death (number of TUNEL+ cells) in renal cortices” value in experiment [2] (24 hours after transplantation, graft stored with Dex 0.1 nM) is given as “reduced”. For the same compound, in experiment [2] (setting [5]), the “tissue level of cytokine IL-1β (ELISA)” value is listed as “reduced tissue level” and the “tissue level of cytokine TNF-α (ELISA)” value is listed as “reduced tissue level”. Further, in experiment [2] (day 1 (24 hours) after transplantation, graft stored with Dex 0.1 nM, CI 24 hr), the “renal functional recovery (serum creatinine and urea)” value is on record as “induced a quick functional recovery”. In addition, in experiment [2] (setting [6]), the “macrophage infiltration (number of CD68+ cells)” value is “attenuated” and the “renal fibrosis (MTS staining)” value is recorded as “attenuated”. For the same compound, in experiment [2] (overall conclusion), the “protection in ex vivo renal allograft from cardiac arrest donation” value is recorded as “conferred significant protection”. For the same compound, the “level of p-JAK2 and its downstream effectors p-STAT1 and STATS” value in experiment [3] (mice, warm ischemia-reperfusion injury) is “significant reduced level”. Moreover, in experiment [3] (mouse, in vivo), the long-term renal function result is recorded as “long-term functional renoprotection” and the survival result was “increased survival”. In experiment [3] (pre- or post-treatment), the “tubular architecture and function following renal ischemia” value is “improved tubular architecture and function”. Further, in experiment [4], the “Heme oxygenase 1 (HO-1) expression, immunofluorescence” value is “significantly increased”; the “Nrf2 expression, immunofluorescence” value was “significantly increased”; the “necroptosis (expression of MLKL)” value is “suppressed necroptosis”; the “renal graft architecture / morphology (H&E staining, injury scoring)” value is listed as “preserved the renal graft architecture”. Moreover, the “tissue injury in the renal cortex (TUNEL cell death staining)” value in experiment [4] is “reduced tissue injury in the renal cortex”.
